For the test, the target named is T1, BrF3′H (BrF3′H-8267) (Brassica rapa, UniProt M4CYL5).
T1 construct: full-length ORF, 511 residues, C-terminal V5 and 6xHis tags (pYES-DEST52); yeast WAT11 microsomes with Arabidopsis reductase ATR1 as redox partner
The test is described as follows: HPLC of […]'-hydroxylation by yeast microsomes. It counts as biochemical. The following applies: 1 mM NADPH, 100 mM Tris-Cl pH 7.5, 30°C, 20 min, 10 μg microsomal protein, Arabidopsis ATR1 reductase.

Each structure is given as a SMILES string. Where two headings read alike, the source gives them in different places.

T1 sequence (M4CYL5 entry or part of it): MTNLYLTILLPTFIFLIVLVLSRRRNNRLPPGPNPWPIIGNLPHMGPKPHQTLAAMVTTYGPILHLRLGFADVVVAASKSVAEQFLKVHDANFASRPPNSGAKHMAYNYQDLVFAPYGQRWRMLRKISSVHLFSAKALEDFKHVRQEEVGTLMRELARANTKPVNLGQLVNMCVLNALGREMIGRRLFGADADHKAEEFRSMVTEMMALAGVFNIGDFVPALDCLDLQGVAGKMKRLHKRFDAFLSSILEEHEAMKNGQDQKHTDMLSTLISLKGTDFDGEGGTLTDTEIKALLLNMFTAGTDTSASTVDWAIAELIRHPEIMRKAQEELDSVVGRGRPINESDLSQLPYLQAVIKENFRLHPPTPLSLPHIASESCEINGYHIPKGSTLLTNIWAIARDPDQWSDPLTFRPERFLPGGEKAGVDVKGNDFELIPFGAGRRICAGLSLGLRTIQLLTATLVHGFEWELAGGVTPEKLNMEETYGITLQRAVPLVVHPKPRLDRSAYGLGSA

On to `O=C1c2c(O)cc(O)cc2OC(c2ccc(O)cc2)C1O` (racemic) [DHK, dihydrokaempferol], for which the Km (read-out: Substrates / DHK) amounted to 3600 µM.

In the case of `O=c1c(O)c(-c2ccc(O)cc2)oc2cc(O)cc(O)c12` [K, kaempferol], the Km (read-out: Substrates / K) amounted to 942 ± 65 µM.

With `O=C1CC(c2ccc(O)cc2)Oc2cc(O)cc(O)c21` (racemic) [Nar, naringenin], where the note is “read-out: Substrates / Nar”, the Km was 1720 ± 152 µM.

(Values after PMC8693655, “Functional Characterization of BrF3'H, Which Determines the Typical Flavonoid Profile of Purple Chinese Cabbage” (Frontiers in Plant Science, 2021).)
